{"source": "patent US9034922B2", "about": "“Composition for maintaining function of platelets” (THE UNIVERSITY OF TOKYO, priority 2010, dated 2015)", "key": {"[1]": {"test_system": "iPS cell-derived platelets (ADAM17-mediated GPIbα shedding)", "experiment": "Function-maintaining effect on iPS cell-derived platelets in culture system (flow cytometry CD41/CD42b, platelet count)", "assay_type": "cell-based, human", "settings": "Test Example 7, 8 days", "from_the_text": "As human iPS cells (hiPS cells), an iPS cell line (TkDA3-4) established at the University of Tokyo by introducing Oct4, Klf4, Sox2, and c-Myc into human-derived skin cells was also used). […] The cells were subcultured for every 3 days, and those keeping an undifferentiated state were used.\nThereby, megakaryocytes/platelets were induced."}, "[2]": {"test_system": "human peripheral blood platelets adhering to VWF", "experiment": "Adhesion ability of platelets to VWF-coated flow chamber", "assay_type": "cell-based", "settings": "Test Example 15; platelets incubated with 15 μM S-45457 and 100 μM CCCP, 37° C., 24 hours; wall shear rate 1500 S^−1", "procedure": "Then, the supernatant was removed. The precipitate thus obtained was suspended in a Tyrode HEPES Ca(−) buffer, added with 100 μM CCCP and simultaneously added with one of either DMSO or 15 μM S-45457 and followed by incubation at 37° C. for 24 hours. Note that, in this experiment, one obtained by adding CCCP and DMSO and the subsequent incubation was prepared as a negative control, while one obtained without the addition or the incubation treatments was prepared as a positive control.\nFurther, after the incubation (in the case of the positive control, without incubation), the suspension was added with TMRE (tetramethylrhodamine ethyl ester perchlorate) having been diluted to 1/2000 and incubated at room temperature for 15 minutes to label the platelets with fluorescence. […]\nNext, each of fluorescence-labelled platelet samples was added to and mixed with a whole blood sample of collected human peripheral blood anticoagulated with argatroban (thrombin inhibitor) so that the number of platelets of the fluorescence-labelled platelet sample was 10% of the whole blood platelets. […] The fluorescence-labelled platelets which formed a thrombus were visualized using an inverted stage epifluorescence video microscope system (DM IRB, manufactured by Leica). […] Further, a percentage of surface area covered by platelets was calculated using Image-J software (NIH Image). […]"}, "[3]": {"test_system": "human platelets in laser/hematoporphyrin-induced thrombus formation", "experiment": "Thrombus formation model in NOG mice with biomolecular imaging (injected human platelets)", "assay_type": "in vivo, mouse", "settings": "Test Example 16; platelets prepared with 15 μM S-45457 and 100 μM CCCP, 37° C., 24 hours, injected into NOG mice", "procedure": "The maintaining effect of the compound (such as S-45457) according to the present invention on the adhesion ability of platelets, particularly adhesion ability of platelets to a blood vessel in vivo, was evaluated using a biomolecular imaging technique and a thrombus formation model developed by the present inventors.\nNote that the thrombus formation model used in this Test Example induces thrombus formation as follows. Specifically, reactive oxygen species (ROS) are generated locally in a blood vessel by using laser irradiation along with hematoporphyrin, and so forth. This gives damage to vascular endothelial cells, and thereby platelets adhere to the blood vessel, so that a thrombus is formed. […]\nFirst, platelets were prepared for injection into mice used as a model of thrombus formation. […] After the incubation (in the case of the positive control, without incubation), the number of platelets in the precipitate was counted. […] The suspension was then incubated at room temperature for 15 minutes to label the platelets with fluorescence. […]\nNext, the thrombus formation model mouse was prepared. […] Then, platelets labelled with fluorescence as described above were injected into the NOG mouse so that the number of the platelets was 15% of the number of circulating platelets. […]"}}}
{"molecule": "CC#CCOc1ccc(S(=O)(=O)CC(c2ccc(CNS(C)(=O)=O)cc2)N(O)C=O)cc1", "note": "(stereo not shown) [Compound I-4, N-{4-[2-(4-But-2-ynyloxybenzenesulfonyl)-1-(formylhydroxyamino)ethyl]benzyl}methanesulfonamide]", "values": [{"measurement": "toxicity to cells (total number of platelets)", "setting": "[1]; iPS cells and differentiated cells, 1.5 to 50 μM", "value": "low toxicity"}, {"measurement": "concentration dependency of inhibition of GPIbα shedding", "setting": "[1]; iPS cells, S-45457 1.5 to 50 μM", "value": "inhibit ADAM17-mediated GPIbα shedding in a manner dependent on the added concentration"}, {"measurement": "percentage of surface area covered by platelets", "setting": "[2]", "value": "high percentage of surface area covered by the platelets in comparison with the result of the negative control"}, {"measurement": "percentage of the human-derived platelets contributing to the thrombus formation", "setting": "[3]", "value": "higher than that of the negative control"}]}
